Reference: patent US5807855A, “1-piperazino-1,2-dihydroindene derivatives” (priority 1992, dated 1998)
Like-named read-outs stand apart in the source and are kept apart here.

Tests used:
DA D1 receptor = DA D1 receptor (Rattus norvegicus, UniProt P18901); assay: biochemical; assay type: binding; details: IC50, D1 3H-SCH
DA D2 receptors = biological target: T1, DA D2 receptors (Rattus norvegicus, UniProt P61169); assay: Inhibition of 3H-spiperone binding to DA D2 receptors in rat striatal membranes; details: rat striatal membranes, 3H-spiperone; read-out: Receptor Binding; IC50, D2 3H-Spi
T1 construct: DA D2 receptors in rat striatal membranes; from tissue; host or cells: rat striatal membranes
T1 sequence (P61169 whole entry): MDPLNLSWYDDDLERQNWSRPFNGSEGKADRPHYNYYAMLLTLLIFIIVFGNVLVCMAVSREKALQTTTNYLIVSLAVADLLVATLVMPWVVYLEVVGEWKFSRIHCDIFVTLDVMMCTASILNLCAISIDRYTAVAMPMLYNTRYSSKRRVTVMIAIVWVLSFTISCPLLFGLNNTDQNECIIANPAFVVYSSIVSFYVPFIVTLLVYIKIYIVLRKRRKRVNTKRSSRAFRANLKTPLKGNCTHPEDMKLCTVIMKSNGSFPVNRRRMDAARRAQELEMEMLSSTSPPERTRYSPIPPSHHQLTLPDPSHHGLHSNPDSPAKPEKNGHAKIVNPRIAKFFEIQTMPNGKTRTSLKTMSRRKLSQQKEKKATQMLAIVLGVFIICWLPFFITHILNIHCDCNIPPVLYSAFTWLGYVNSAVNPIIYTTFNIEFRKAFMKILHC

5-HT2 receptors = biological target: T2, 5-HT2 receptors (Rattus norvegicus, UniProt P14842); assay: Inhibition of 3H-ketanserin binding to 5-HT2 receptors in membranes from rat cortex; details: Receptor Binding, IC50, 5-HT2 3H-Ket
T2 construct: 5-HT2 receptors in membranes from rat cortex; from tissue; host or cells: membranes from rat cortex
T2 sequence (P14842 whole entry): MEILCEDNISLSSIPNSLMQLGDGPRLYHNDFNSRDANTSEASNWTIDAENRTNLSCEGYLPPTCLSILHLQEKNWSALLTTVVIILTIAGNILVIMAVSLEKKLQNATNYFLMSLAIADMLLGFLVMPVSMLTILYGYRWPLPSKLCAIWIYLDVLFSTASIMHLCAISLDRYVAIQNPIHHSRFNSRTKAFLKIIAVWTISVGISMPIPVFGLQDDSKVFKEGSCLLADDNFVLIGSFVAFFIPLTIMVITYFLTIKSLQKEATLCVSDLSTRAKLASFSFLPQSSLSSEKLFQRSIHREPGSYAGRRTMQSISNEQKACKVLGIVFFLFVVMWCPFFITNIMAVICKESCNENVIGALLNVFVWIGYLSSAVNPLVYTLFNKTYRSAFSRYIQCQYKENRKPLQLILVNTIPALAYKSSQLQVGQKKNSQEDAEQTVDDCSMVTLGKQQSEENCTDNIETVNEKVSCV
Protocol: Receptor binding studies.
5-HT2 receptors. Inhibition of ^3 H-ketanserin binding to 5-HT2 receptors in membranes from rat cortex was determined as described by Hyttel, J. Acta. Pharmacol. Toxicol.

[1] = rat striatal membranes, 3H-SCH 23390, read-out: Receptor Binding

Chain of DA D1 receptor (P18901 whole entry): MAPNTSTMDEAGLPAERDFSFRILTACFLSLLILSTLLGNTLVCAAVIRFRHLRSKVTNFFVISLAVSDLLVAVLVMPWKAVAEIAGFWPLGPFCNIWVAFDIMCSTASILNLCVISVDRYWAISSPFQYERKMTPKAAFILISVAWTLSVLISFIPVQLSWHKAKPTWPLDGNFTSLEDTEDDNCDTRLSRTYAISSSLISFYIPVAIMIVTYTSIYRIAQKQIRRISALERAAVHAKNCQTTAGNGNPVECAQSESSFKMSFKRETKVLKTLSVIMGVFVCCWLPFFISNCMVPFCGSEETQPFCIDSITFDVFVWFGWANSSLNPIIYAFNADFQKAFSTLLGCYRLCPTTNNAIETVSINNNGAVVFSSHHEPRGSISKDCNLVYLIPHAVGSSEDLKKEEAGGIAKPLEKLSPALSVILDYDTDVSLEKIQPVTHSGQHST

## CN1CCN([C@@H]2C[C@@H](c3ccccc3F)c3ccc(Cl)cc32)CC1(C)C (racemic) [Compound 11, (±)-Trans-4-[6-chloro-3-(2-fluorophenyl)-2,3-dihydro-1H-inden-1-yl]-1,2,2-trimethylpiperazine]
DA D1 receptor; Receptor Binding
  IC50: 4.4 nM
DA D2 receptors
  IC50: 36 nM
5-HT2 receptors
  IC50: 21 nM

## CN1CCN([C@@H]2C[C@@H](c3cccc(F)c3)c3ccc(Cl)cc32)CC1(C)C (racemic) [Compound 12, (±)-Trans-4-[6-chloro-3-(3-fluorophenyl)-2,3-dihydro-1H-inden-1-yl]-1,2,2-trimethylpiperazine]
DA D1 receptor; Receptor Binding
  IC50: 9.6 nM
DA D2 receptors
  IC50: 280 nM
5-HT2 receptors
  IC50: 26 nM

## CC1(C)CN([C@@H]2C[C@@H](c3ccsc3)c3ccc(Cl)cc32)CCN1 (racemic) [Compound 13, (±)-Trans-4-[6-chloro-3-(3-thienyl)-2,3-dihydro-1H-inden-1-yl]-2,2-dimethylpiperazine]
DA D1 receptor; Receptor Binding
  IC50: 1.4 nM
DA D2 receptors
  IC50: 8.2 nM
5-HT2 receptors
  IC50: 1 nM

## CN1CCN([C@@H]2C[C@@H](c3ccsc3)c3ccc(Cl)cc32)CC1(C)C (racemic) [Compound 14, (±)-Trans-4-[6-chloro-3-(3-thienyl)-2,3-dihydro-1H-inden-1-yl]-1,2,2-trimethylpiperazine]
DA D1 receptor; Receptor Binding
  IC50: 0.76 nM
DA D2 receptors
  IC50: 6.1 nM
5-HT2 receptors
  IC50: 1.7 nM

## CN1CCN([C@@H]2C[C@@H](c3ccc(F)cc3)c3cc(Cl)ccc32)CC1(C)C (racemic) [Compound 16, (±)-Trans-4-[5-chloro-3-(4-fluorophenyl)-2,3-dihydro-1H-inden-1-yl]-1,2,2-trimethylpiperazine]
DA D1 receptor; Receptor Binding
  IC50: 37 nM
DA D2 receptors
  IC50: 340 nM
5-HT2 receptors
  IC50: 9.3 nM

## CN1CCN([C@@H]2C[C@@H](c3ccc(F)cc3)c3cccc(Cl)c32)CC1(C)C (racemic) [Compound 17, (±)-Trans-4-[7-chloro-3-(4-fluorophenyl)-2,3-dihydro-1H-inden-1-yl]-1,2,2-trimethylpiperazine]
DA D1 receptor; Receptor Binding
  IC50: 32 nM
DA D2 receptors
  IC50: 1200 nM
5-HT2 receptors
  IC50: 31 nM

## CCC1(CC)CN([C@@H]2C[C@@H](c3ccc(F)cc3)c3ccc(Cl)cc32)CCN1 (racemic) [Compound 23, (±)-Trans-4-[6-chloro-3-(4-fluorophenyl)-2,3-dihydro-1H-inden-1-yl]-2,2-diethylpiperazine]
DA D1 receptor; [1]
  IC50: 4.7 nM
DA D2 receptors
  IC50: 36 nM
5-HT2 receptors
  IC50: 11 nM

## Fc1ccc([C@@H]2C[C@@H](N3CCNC4(CCCCC4)C3)c3cc(Cl)ccc32)cc1 (racemic) [Compound 31, (±)-Trans-4-[6-chloro-3-(4-fluorophenyl)-2,3-dihydro-1H-inden-1-yl]-1,4-diazaspiro[5.5]undecan]
DA D1 receptor; [1]
  IC50: 6.4 nM
DA D2 receptors
  IC50: 75 nM
5-HT2 receptors
  IC50: 25 nM

## CN1CCN([C@@H]2C[C@@H](c3ccc(F)cc3)c3cccc(F)c32)CC1(C)C (racemic) [Compound 36, (±)-Trans-4-[7-fluoro-3-(4-fluorophenyl)-2,3-dihydro-1H-inden-1-yl]-1,2,2-trimethyl piperazine]
DA D1 receptor; Receptor Binding
  IC50: 3.8 nM
DA D2 receptors
  IC50: 74 nM
5-HT2 receptors
  IC50: 9.8 nM

## CC1(C)CN([C@@H]2C[C@@H](c3ccc(F)cc3)c3ccc(Cl)cc32)CCN1CCCO (racemic) [Compound 39, (±)-Trans-4-[6-chloro-3-(4-fluorophenyl)-2,3-dihydro-1H-inden-1-yl]-2,2-dimethyl-1-piperazinepropanol]
DA D1 receptor; [1]
  IC50: 1.8 nM
DA D2 receptors
  IC50: 9.8 nM
5-HT2 receptors
  IC50: 3 nM

## CC(C)C1CN([C@@H]2C[C@@H](c3ccc(F)cc3)c3ccc(Cl)cc32)CCN1 (relative stereo) [Compound 19, Trans-4-[6-chloro-3-(4-fluorophenyl)-2,3-dihydro-1H-inden-1-yl]-2-(2-propyl)piperazine]
DA D1 receptor; [1]
  IC50: 2.2 nM
DA D2 receptors
  IC50: 38 nM
5-HT2 receptors
  IC50: 5.6 nM

## CC(C)C1CN([C@@H]2C[C@@H](c3ccc(F)cc3)c3ccc(Cl)cc32)CCN1 (relative stereo) [Compound 20, Trans-4-[6-chloro-3-(4-fluorophenyl)-2,3-dihydro-1H-inden-1-yl]-2-(2-propyl)piperazine]
DA D1 receptor; [1]
  IC50: 6 nM
DA D2 receptors
  IC50: 130 nM
5-HT2 receptors
  IC50: 8.8 nM
